Structures are written as SMILES. pIC50: −log10 of the molar value.

For the first experiment, the target named is T1, recombinant human liver glycogen phosphorylase (Homo sapiens, UniProt P06737).
T1 construct: made in house; host or cells: Sf9 insect cells (crude homogenate, diluted, used as the enzyme solution)
T1 sequence (P06737 1-847): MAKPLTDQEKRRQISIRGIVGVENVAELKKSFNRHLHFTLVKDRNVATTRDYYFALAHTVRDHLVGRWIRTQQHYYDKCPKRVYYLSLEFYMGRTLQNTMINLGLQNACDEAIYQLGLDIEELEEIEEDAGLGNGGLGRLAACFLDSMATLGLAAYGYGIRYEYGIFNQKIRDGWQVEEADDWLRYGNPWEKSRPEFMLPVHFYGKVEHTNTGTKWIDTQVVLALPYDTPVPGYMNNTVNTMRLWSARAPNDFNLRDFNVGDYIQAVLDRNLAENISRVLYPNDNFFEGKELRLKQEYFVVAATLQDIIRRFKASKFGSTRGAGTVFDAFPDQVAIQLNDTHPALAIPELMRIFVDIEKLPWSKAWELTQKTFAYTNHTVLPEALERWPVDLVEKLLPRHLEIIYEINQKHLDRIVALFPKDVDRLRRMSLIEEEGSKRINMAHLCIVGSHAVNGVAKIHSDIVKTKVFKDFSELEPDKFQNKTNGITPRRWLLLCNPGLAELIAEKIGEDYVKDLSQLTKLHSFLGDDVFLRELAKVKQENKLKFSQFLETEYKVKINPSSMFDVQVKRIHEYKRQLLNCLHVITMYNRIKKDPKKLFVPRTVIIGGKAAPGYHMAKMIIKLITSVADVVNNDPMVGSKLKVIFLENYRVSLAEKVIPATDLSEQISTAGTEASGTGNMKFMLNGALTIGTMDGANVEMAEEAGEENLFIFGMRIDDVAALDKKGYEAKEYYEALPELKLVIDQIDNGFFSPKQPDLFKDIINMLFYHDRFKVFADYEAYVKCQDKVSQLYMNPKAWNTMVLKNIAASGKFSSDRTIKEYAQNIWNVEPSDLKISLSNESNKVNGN
Put plainly: Measuring liver glycogen phosphorylase activity (forward reaction system, NADPH absorbance at 340 nm). The experiment is classed as biochemical. As to conditions: compound concentration 100 nmol (in parentheses). How it is done:
[Pharmacological Test] 1. Exemplary Test (1) Method for Measuring Liver Glycogen Phosphorylase Activity
The measurement of glycogen phosphorylase activity was carried out by a method using the forward reaction system.
The measurement of glycogen phosphorylase activity using the forward reaction system was carried out as follows. Glucose-1-phosphate prepared from glycogen by glycogen phosphorylase was converted into glucono-δ-lactone 6-phosphate through transphosphorylation and dehydrogenation using phosphoglucomutase and glucose-6-phosphate dehydrogenase (G6PDH). NADPH generated from NADP during the dehydrogenation by G6PDH was detected.
A homogenate of the Sf9 cells which expressed exogenously recombinant human liver glycogen phosphorylase was diluted with 100 mmol/LBES buffer solution (pH 6.8, containing 2 mmol/L EDTA) and the dilution was used as the enzyme solution of human liver glycogen phosphorylase. As the substrate, a phosphate buffer (containing 16 mmol/L KH2PO4, 24 mmol/L Na2HPO4) was used. A mixture of 8 U/mL phosphoglucomutase and 60 U/mL G6PDH was prepared in BES buffer solution. Buffer solution (containing 1.4 mmol/L NADP, 30 mmol/L MgCl2, 8 μmol/L glucose-1,6-diphosphate, 8 mg/mL glycogen, 40 mmol/LBES, 0.8 mmol/L EDTA) for reaction and a glucose solution (containing 75 mmol/L glucose, 100 mmol/LBES, 2 mmol/L EDTA) were prepared individually. The test compound was dissolved in 1% DMSO solution.
The enzymatic reaction was begun by adding 20 μL of the recombinant human liver glycogen phosphorylase solution and 20 μL of the mixture of phosphoglucomutase and G6PDH to the mixture of 20 μL of the glucose solution, 20 μL of the substrate, 100 μL of the buffer solution for reaction and 20 μL of the test compound solution. As control, 1% DMSO solution was added instead of the test compound. The mixture without the substrate was used as blank. The absorbance at 340 nm was measured immediately after the reaction started. The absorbance at 340 nm was measured again after reacting at room temperature for 75 minutes. The enzymatic activity is a value obtained by subtracting the blank variation in absorbance over 75 minutes from the variation in absorbance over 75 minutes.
The inhibition rate (%) of the test compound was calculated by the expression “(1-enzymatic activity of test compound/enzymatic activity of control)×100.”
A linear equation was determined from the two concentration points with the 50% inhibition rate therebetween, and the IC50 value was calculated from the concentration at the intersection of the line with the 50% inhibition rate.
“IC50” in the tables indicates the above-described enzyme inhibitory activity with respect to liver glycogen phosphorylase, and the activity to inhibit liver glycogen phosphorylase was represented as ++ when the IC50 value (nmol/L) was less than 100 nmol/L, as + when the IC50 value was between 100 nmol/L and 300 nmol/L. When IC50 is 300 nmol/L or more, an inhibition rate (%) at a certain concentration of the compound (I) of the present invention is shown in Tables. For example, when the inhibition rate is 20% at a concentration of 300 nmol, the rate is described as 20% (300).
As for `O=C(Nc1cccc2cccnc12)c1cc(NC(=O)c2cc(F)c(F)cc2Cl)[nH]n1` [Example 5-37], the “inhibition rate (%) at a certain concentration” value was 22.3% (100).
The same measure, in the same setting: next, `CCOc1cc(C(C)(C)C(=O)O)cnc1NC(=O)c1cc(NC(=O)c2cc(F)c(F)cc2Cl)[nH]n1` [Example 1-151]: 13.3%(100).

Staying with this experiment, now noted: compound concentration 100 nmol (in parentheses); read-out: inhibition rate (%) at a certain concentration.
Take `O=C(NCc1cccc(-c2ccccc2)c1)c1cc(NC(=O)c2cc(F)c(F)cc2Cl)[nH]n1` [Example 2-29]: the inhibition at 0.1 µM was determined as 45.8%.
Turning to `CCOC(=O)C(C)(C)c1cnc(NC(=O)c2cc(NC(=O)c3cc(F)c(F)cc3Cl)[nH]n2)c(OCC)c1` [Example 1-148], the inhibition at 0.1 µM worked out at 14.1%.
On the same count and under the same terms, next, `O=C(Nc1cccc2ncccc12)c1cc(NC(=O)c2cc(F)c(F)cc2Cl)[nH]n1` [Example 1-145]: 12.8%.

The experiment is the same for the next values; noted with them: compound concentration 300 nmol (in parentheses); read-out: inhibition rate (%) at a certain concentration.
As for `COc1ccccc1NC(=O)c1cc(NC(=O)c2cc(F)c(F)cc2Cl)[nH]n1` [Example 3-27], the inhibition at 0.3 µM turned out to be 41.5%.
As to `COc1ccc(Cl)cc1C(=O)Nc1cc(C(=O)NCc2ccccc2)n[nH]1` [Example 4-17], the inhibition at 0.3 µM is 1.1%.
Take `O=C(Nc1cc(C(=O)N(CCCCO)Cc2ccccc2)n[nH]1)c1cc(F)c(F)cc1Cl` [Example 1-86]: the inhibition at 0.3 µM came to 17%.
In the case of `CN(C(=O)c1cc(NC(=O)c2cc(F)c(F)cc2Cl)[nH]n1)c1cccc(C(=O)O)c1` [Example 2-14], the inhibition at 0.3 µM is 37.5%.

Staying with this experiment, now noted: compound concentration 480 nmol (in parentheses); read-out: inhibition rate (%) at a certain concentration.
Regarding `O=C(NCCc1ccccc1)c1cc(NC(=O)c2cc(F)c(F)cc2Cl)[nH]n1` [Example 3-9], the inhibition at 0.48 µM worked out at 50%.

Still in this experiment, the particulars now being: compound concentration 1000 nmol (in parentheses); read-out: inhibition rate (%) at a certain concentration.
For `COC(=O)[C@H](NC(=O)c1cc(NC(=O)c2cc(F)c(F)cc2Cl)[nH]n1)c1ccccc1` [Example 3-14], the inhibition at 1 µM worked out at 41.7%.
With `O=C(N[C@H](CO)c1ccccc1)c1cc(NC(=O)c2cc(F)c(F)cc2Cl)[nH]n1` [Example 3-23], the inhibition at 1 µM was 26.1%.

The same experiment, now with this note: enzyme inhibitory activity with respect to liver glycogen phosphorylase; class symbols.
Usually pIC50 stands for −log10 of the IC50, conventionally taken in molar units. Regarding `Cc1cc(Cl)ccc1C(=O)Nc1cc(C(=O)NCc2ccccc2)n[nH]1` [Example 4-15], the pIC50 was 6.52 to 7.00.
`COC(=O)CCNC(=O)c1ccc(CNC(=O)c2cc(NC(=O)c3cc(F)c(F)cc3Cl)[nH]n2)cc1` [Example 1-44]: the pIC50 is > 7.00.
Turning to `Cc1nc(CNC(=O)c2cc(NC(=O)c3cc(F)c(F)cc3Cl)[nH]n2)cs1` [Example 1-45], the pIC50 was > 7.00.
Take `CCCN(C(=O)c1cc(NC(=O)c2cc(F)c(F)cc2Cl)[nH]n1)C1CCC(C(=O)OCC)CC1` (stereo not drawn) [Example 1-11]: the pIC50 was 6.52 to 7.00.
As for `CCNC(=O)c1cccc(CNC(=O)c2cc(NC(=O)c3cc(F)c(F)cc3Cl)[nH]n2)c1` [Example 1-121], the pIC50 is > 7.00.
In the case of `Cc1nc(-c2ccccc2)oc1CNC(=O)c1cc(NC(=O)c2cc(F)c(F)cc2Cl)[nH]n1` [Example 1-165], the pIC50 was > 7.00.
Consider `COc1cc(CNC(=O)c2cc(NC(=O)c3cc(F)c(F)cc3Cl)[nH]n2)cc(OC)c1` [Example 1-16], for which the pIC50 was > 7.00.
With `CCN(CC)C(=O)c1ccc(CNC(=O)c2cc(NC(=O)c3cc(F)c(F)cc3Cl)[nH]n2)cc1` [Example 1-118], the pIC50 was > 7.00.
Still for that read-out and setting: with `O=C(NCc1ccc(C(F)(F)F)cc1)c1cc(NC(=O)c2cc(F)c(F)cc2Cl)[nH]n1` [Example 1-29] the figure was > 7.00; with `Cc1nc(C)c(CNC(=O)c2cc(NC(=O)c3cc(F)c(F)cc3Cl)[nH]n2)o1` [Example 1-2-2, 5-(2-chloro-4,5-difluoro-benzoylamino)-1H-pyrazole-3-carboxylic acid (2,4-dimethyl-oxazol-5-ylmethyl)-amide p-toluenesulfonate], > 7.00; with `CC(C)c1ccc(CNC(=O)c2cc(NC(=O)c3cc(F)c(F)cc3Cl)[nH]n2)cc1` [Example 1-35], > 7.00.
For the molecule `COCCNC(=O)c1cc(NC(=O)c2cc(F)c(F)cc2Cl)[nH]n1` [Example 1-106], the negative logarithm of the IC50 (pIC50) was 6.52 to 7.00.
Same read-out and setting: next, `CC(=O)OCCN(CCO)CCNC(=O)c1ccc(CNC(=O)c2cc(NC(=O)c3cc(F)c(F)cc3Cl)[nH]n2)cc1` [Example 1-49]: > 7.00; `O=C(NCc1ccccc1)c1cc(NC(=O)c2cc(F)ccc2Cl)[nH]n1` [Example 4-8]: 6.52 to 7.00; `O=C(NCc1cccc(C(F)(F)F)c1)c1cc(NC(=O)c2cc(F)c(F)cc2Cl)[nH]n1` [Example 1-28]: > 7.00.
Consider `CS(=O)(=O)Nc1ccc(CNC(=O)c2cc(NC(=O)c3cc(F)c(F)cc3Cl)[nH]n2)cc1` [Example 2-16], for which the pIC50 is > 7.00.
The same measure, in the same setting: next, `CC(=O)Nc1ccc(CNC(=O)c2cc(NC(=O)c3cc(F)c(F)cc3Cl)[nH]n2)cc1` [Example 2-18]: > 7.00; `CCCN(C(=O)c1cc(NC(=O)c2cc(F)c(F)cc2Cl)[nH]n1)C1CCN(C(=O)CC(=O)O)CC1` [Example 1-124]: > 7.00.
Consider `NCc1ccnc(CNC(=O)c2cc(NC(=O)c3cc(F)c(F)cc3Cl)[nH]n2)c1` [Example 5-18], for which the pIC50 was > 7.00.
As to `O=C(O)CN(C(=O)c1cc(NC(=O)c2cc(F)c(F)cc2Cl)[nH]n1)c1ccccc1` [Example 4-5], the pIC50 is 6.52 to 7.00.

Staying with this experiment, now noted: figure in brackets (100); read-out: IC50: % value given with (100).
In the case of `Nc1cc(F)c(F)cc1C(=O)Nc1cc(C(=O)NCc2cccnc2)n[nH]1` [Example 7-11], the inhibition at 0.1 µM turned out to be 47.3%.
Regarding `NC(=O)CNC(=O)c1cc(NC(=O)c2cc(F)c(F)cc2Cl)[nH]n1` [Example 6-1], the inhibition at 0.1 µM amounted to 15.5%.
Still for that read-out and setting: next, `O=C(NC1Cc2ccccc2C1)c1cc(NC(=O)c2cc(F)c(F)cc2Cl)[nH]n1` [Example 6-42]: 21.7%.

The same experiment, now with this note: figure in brackets (300); read-out: IC50 column: % value printed with (300).
As to `O=C(NCc1cccnc1)c1cc(NC(=O)c2cc(F)c(Cl)nc2Cl)[nH]n1` [Example 7-5], the inhibition at 0.3 µM is 8.5%.
On to `CN(C(=O)c1cc(NC(=O)c2cc(F)c(F)cc2Cl)[nH]n1)c1ccc(-c2nnc[nH]2)cc1` [Example 6-8], for which the inhibition at 0.3 µM was determined as 11.7%.

Staying with this experiment, now noted: human liver glycogen phosphorylase; class symbol.
As to `O=C(Nc1cc(C(=O)N2C=Nc3ccc(F)cc3C2)n[nH]1)c1cc(F)c(F)cc1Cl` [Example 6-46], the pIC50 was > 7.00.
Turning to `CN(C)C(=O)Nc1cccc(CNC(=O)c2cc(NC(=O)c3cc(F)c(F)cc3Cl)[nH]n2)c1` [Example 6-36], the negative-log IC50 (pIC50) is > 7.00.
Still for that read-out and setting: next, `Cc1cc(F)c(F)cc1C(=O)Nc1cc(C(=O)NCc2ccnc(-c3nnn[nH]3)c2)n[nH]1` [Example 7-16]: > 7.00; `N=C(Nc1ccc(CNC(=O)c2cc(NC(=O)c3cc(F)c(F)cc3Cl)[nH]n2)cc1)c1ccccc1F` [Example 6-35]: > 7.00; `O=C(NCc1cccnc1)c1cc(NC(=O)c2ccc(Cl)cc2Cl)[nH]n1` [Example 7-3]: > 7.00.
